The record followed here is US20160137714A1 (Thrasos Innovation, Inc., priority 2014, published 2016).

Positions of bridges follow the written chain, without caps; N, C: chain ends. Non-standard residues stand in square brackets, D forms with d. Residues, ends and D or L forms follow the SMILES beside them. NMeR = CN[C@@H](CCCNC(=N)N)C(=O)O

This data set in a line: Ex-vivo plasma stability. It is filed as in vitro ADME, mouse or rat. To be noted: for remaining at 1 h / remaining at 2 h: fresh plasma 37° C., 1 μM; for remaining at 1 h: 60 min, read-out: Percent remaining 60 min; for remaining at 2 h: 120 min, read-out: Percent remaining 120 min; for stability toward plasma proteolytic cleavage: versus THR-123, rat plasma (FIGS. 3 and 4). On the procedure: Test article is added to fresh mouse or rat plasma at a final in-vial concentration of 1 μM. The peptide is incubated in a water bath at 37° C. over a time course that included the following points (in minutes): 0, 15, 30, 60, 120, 240, and 1440. After the incubation time is completed, a 50 μL aliquot of plasma is removed and proteins are precipitated using a solution containing internal standard (THR-123 at 150 ng/mL) in methanol with 0.5% acetic acid (v/v). The samples are centrifuged at 13,000 RPM for 5 minutes, and a 100 μL aliquot of supernatant is removed and transferred to a 96-well plate containing 200 μL of reconstitution solution (Water/MeOH/Acetic Acid/TFA, 60/40/0.2/0.05, v/v/v/v). A calibration curve and quality control (QC) samples are prepared in parallel in the same manner as the incubation samples. The calibration range for this assay is from 0.02 to 2.0 μM in rat or mouse plasma. The extracted calibrants, QC, and incubation samples are injected onto an AB SCIEX API 2000 LC-MS/MS system. Chromatographic separation is performed using a reversed-phase C18 HPLC column (Ace-3 C18, 30×2.1 mm, 3 μm). The solvent system consists of Milli-Q water, acetonitrile and formic acid. Analyte and internal standard are detected using the multiple reaction monitoring (MRM) scan mode. Calibration curves are generated by using a weighted (1/concentration) quadratic regression analysis of the peak area ratios (analyte/internal standard) versus the nominal concentration of the calibration standards. The concentration of the analyte in the incubation samples is determined by back-calculating the peak area ratios obtained using the quadratic regression.

Usually fraction remaining stands for what is left of the initial amount, in per cent. Turning to `CC(C)C[C@@H]1NC(=O)[C@H](C(C)C)NC(=O)[C@H](CC(N)=O)NC(=O)[C@H](CO)NC(=O)[C@H](CO)NC(=O)[C@H](CC(=O)O)NC(=O)[C@H](CC(=O)O)NC(=O)[C@H](Cc2ccccc2)NC(=O)[C@H](Cc2ccc(O)cc2)NC(=O)[C@@H](N)CSSC[C@@H](C(=O)N[C@@H](CCCCN)C(=O)N[C@@H](CCCNC(=N)N)C(=O)N[C@@H](Cc2ccc(O)cc2)C(=O)N[C@@H](CCCNC(=N)N)C(=O)N[C@@H](CO)C(=O)O)NC1=O` [GPR-293, Cys-Tyr-Phe-Asp-Asp-Ser-Ser-Asn-Val-Leu-Cys-Lys-Arg-Tyr-Arg-Ser] (H-CYFDDSSNVLCKRYRS-OH; disulfide 1-11), the fraction remaining at 1 h stood at 3.5% and the amount remaining at 2 h turned out to be 1.6%.
On the same counts, the results for `CC(C)C[C@@H]1NC(=O)[C@H](C(C)C)NC(=O)[C@H](CO)NC(=O)[C@H](CO)NC(=O)[C@H](CO)NC(=O)[C@H](CC(N)=O)NC(=O)[C@H](CC(=O)O)NC(=O)[C@H](Cc2ccc(O)cc2)NC(=O)[C@H](Cc2ccc(O)cc2)NC(=O)[C@@H](N)CSSC[C@@H](C(=O)N[C@@H](CCCCN)C(=O)N[C@@H](CCCCN)C(=O)N[C@@H](Cc2ccc(O)cc2)C(=O)N[C@@H](CCCNC(=N)N)C(=O)N[C@@H](CO)C(=O)O)NC1=O` [GPR-269, Cys-Tyr-Tyr-Asp-Asn-Ser-Ser-Ser-Val-Leu-Cys-Lys-Lys-Tyr-Arg-Ser] (H-CYYDNSSSVLCKKYRS-OH; disulfide 1-11) are 9.9% and 6.8%.
Consider `CC(C)C[C@@H]1NC(=O)[C@H](C(C)C)NC(=O)[C@H](CC(N)=O)NC(=O)[C@H](CO)NC(=O)[C@H](CO)NC(=O)[C@H](CC(=O)O)NC(=O)[C@H](CC(=O)O)NC(=O)[C@H](Cc2ccccc2)NC(=O)[C@H](Cc2ccc(O)cc2)NC(=O)[C@@H](N)CSSC[C@@H](C(=O)N[C@@H](CCCCN)C(=O)N[C@H](CCCCN)C(=O)N[C@@H](Cc2ccc(O)cc2)C(=O)N[C@@H](CCCNC(=N)N)C(=O)N[C@@H](CO)C(=O)O)NC1=O` [GPR-388, Cys-Tyr-Phe-Asp-Asp-Ser-Ser-Asn-Val-Leu-Cys-Lys-(D)lys-Tyr-Arg-Ser] (H-CYFDDSSNVLCK[dK]YRS-OH; disulfide 1-11), for which the share remaining at 1 h amounted to 77.6%, the fraction remaining at 2 h is 64.2% and the “stability toward plasma proteolytic cleavage” value is “enhanced”.
For the compound `CC(C)C[C@@H]1NC(=O)[C@H](C(C)C)NC(=O)[C@H](CO)NC(=O)[C@H](CO)NC(=O)[C@H](CO)NC(=O)[C@H](CC(N)=O)NC(=O)[C@H](CC(=O)O)NC(=O)[C@H](Cc2ccc(O)cc2)NC(=O)[C@H](Cc2ccc(O)cc2)NC(=O)[C@@H](N)CSSC[C@@H](C(=O)N[C@@H](CCCCN)C(=O)N[C@@H](CCCNC(=N)N)C(=O)N[C@@H](Cc2ccc(O)cc2)C(=O)N[C@@H](CCCNC(=N)N)C(=O)N[C@@H](CO)C(=O)O)NC1=O` [GPR-259, Cys-Tyr-Tyr-Asp-Asn-Ser-Ser-Ser-Val-Leu-Cys-Lys-Arg-Tyr-Arg-Ser] (H-CYYDNSSSVLCKRYRS-OH; disulfide 1-11), the amount remaining at 1 h was determined as 4% and the amount remaining at 2 h turned out to be 2.5%.
On the same counts, the results for `CC(C)C[C@@H]1NC(=O)[C@H](C(C)C)NC(=O)[C@H](CO)NC(=O)[C@H](CO)NC(=O)[C@H](CO)NC(=O)[C@H](CC(=O)O)NC(=O)[C@H](CC(=O)O)NC(=O)[C@H](Cc2ccc(O)cc2)NC(=O)[C@H](Cc2ccc(O)cc2)NC(=O)[C@@H](N)CSSC[C@@H](C(=O)N[C@@H](CCCCN)C(=O)N[C@@H](CCCCN)C(=O)N[C@@H](Cc2ccc(O)cc2)C(=O)N[C@@H](CCCNC(=N)N)C(=O)N[C@@H](CO)C(=O)O)NC1=O` [GPR-267, Cys-Tyr-Tyr-Asp-Asp-Ser-Ser-Ser-Val-Leu-Cys-Lys-Lys-Tyr-Arg-Ser] (H-CYYDDSSSVLCKKYRS-OH; disulfide 1-11) are 1.5% and 0%.
Take `CC(C)C[C@@H]1NC(=O)[C@H](C(C)C)NC(=O)[C@H](CO)NC(=O)[C@H](CO)NC(=O)[C@H](CO)NC(=O)[C@H](CC(N)=O)NC(=O)[C@H](CC(=O)O)NC(=O)[C@H](Cc2ccc(O)cc2)NC(=O)[C@H](Cc2ccc(O)cc2)NC(=O)[C@@H](N)CSSC[C@@H](C(=O)N[C@@H](CCCCN)C(=O)N[C@@H](CCCNC(=N)N)C(=O)N[C@@H](Cc2ccc(O)cc2)C(=O)N(C)[C@@H](CCCNC(=N)N)C(=O)N[C@@H](CO)C(=O)O)NC1=O` [GPR-398, Cys-Tyr-Tyr-Asp-Asn-Ser-Ser-Ser-Val-Leu-Cys-Lys-Arg-Tyr-(Nα-Me)Arg-Ser] (H-CYYDNSSSVLCKRY[NMeR]S-OH; disulfide 1-11): the amount remaining at 1 h is 79.2% and the share remaining at 2 h was 68.1%.
As for `CC(C)C[C@@H]1NC(=O)[C@H](C(C)C)NC(=O)[C@H](CO)NC(=O)[C@H](CO)NC(=O)[C@H](CO)NC(=O)[C@H](CC(N)=O)NC(=O)[C@H](CC(=O)O)NC(=O)[C@H](Cc2ccc(O)cc2)NC(=O)[C@H](Cc2ccc(O)cc2)NC(=O)[C@@H](N)CSSC[C@@H](C(=O)N[C@@H](CCCCN)C(=O)N[C@@H](CCCCN)C(=O)N[C@H](Cc2ccc(O)cc2)C(=O)N[C@@H](CCCNC(=N)N)C(=O)N[C@@H](CO)C(=O)O)NC1=O` [GPR-296, Cys-Tyr-Tyr-Asp-Asn-Ser-Ser-Ser-Val-Leu-Cys-Lys-Lys-D-tyr-Arg-Ser] (H-CYYDNSSSVLCKK[dY]RS-OH; disulfide 1-11), the fraction remaining at 1 h turned out to be 97.5% and the fraction remaining at 2 h stood at 86.4%.
On the same counts, the results for `CC(C)C[C@@H]1NC(=O)[C@H](C(C)C)NC(=O)[C@H](CO)NC(=O)[C@H](CO)NC(=O)[C@H](CO)NC(=O)[C@H](CC(=O)O)NC(=O)[C@H](CC(=O)O)NC(=O)[C@H](Cc2ccc(O)cc2)NC(=O)[C@H](Cc2ccc(O)cc2)NC(=O)[C@@H](N)CSSC[C@@H](C(=O)N[C@@H](CCCCN)C(=O)N[C@@H](CCCCN)C(=O)N[C@H](Cc2ccc(O)cc2)C(=O)N[C@@H](CCCNC(=N)N)C(=O)N[C@@H](CO)C(=O)O)NC1=O` [GPR-295, Cys-Tyr-Tyr-Asp-Asp-Ser-Ser-Ser-Val-Leu-Cys-Lys-Lys-D-tyr-Arg-Ser] (H-CYYDDSSSVLCKK[dY]RS-OH; disulfide 1-11) are 92.2% and 94.7%.
In the case of `CC(C)C[C@@H]1NC(=O)[C@H](C(C)C)NC(=O)[C@H](CC(N)=O)NC(=O)[C@H](CO)NC(=O)[C@H](CO)NC(=O)[C@H](CC(=O)O)NC(=O)[C@H](CC(=O)O)NC(=O)[C@H](Cc2ccccc2)NC(=O)[C@H](Cc2ccc(O)cc2)NC(=O)[C@@H](N)CSSC[C@@H](C(=O)N[C@@H](CCCCN)C(=O)N[C@@H](CCCCN)C(=O)N[C@@H](Cc2ccc(O)cc2)C(=O)N[C@H](CCCNC(=N)N)C(=O)N[C@@H](CO)C(=O)O)NC1=O` [GPR-389, Cys-Tyr-Phe-Asp-Asp-Ser-Ser-Asn-Val-Leu-Cys-Lys-Lys-Tyr-D-arg-Ser] (H-CYFDDSSNVLCKKY[dR]S-OH; disulfide 1-11), the share remaining at 1 h was 58.5%, the fraction remaining at 2 h turned out to be 46.1% and the “stability toward plasma proteolytic cleavage” value was “enhanced”.
As for `CC(C)C[C@@H]1NC(=O)[C@H](C(C)C)NC(=O)[C@H](CO)NC(=O)[C@H](CO)NC(=O)[C@H](CO)NC(=O)[C@H](CC(N)=O)NC(=O)[C@H](CC(=O)O)NC(=O)[C@H](Cc2ccc(O)cc2)NC(=O)[C@H](Cc2ccc(O)cc2)NC(=O)[C@@H](N)CSSC[C@@H](C(=O)N[C@@H](CCCCN)C(=O)N[C@@H](CCCNC(=N)N)C(=O)N[C@H](Cc2ccc(O)cc2)C(=O)N[C@@H](CCCNC(=N)N)C(=O)N[C@@H](CO)C(=O)O)NC1=O` [GPR-279, Cys-Tyr-Tyr-Asp-Asn-Ser-Ser-Ser-Val-Leu-Cys-Lys-Arg-D-tyr-Arg-Ser] (H-CYYDNSSSVLCKR[dY]RS-OH; disulfide 1-11), the fraction remaining at 1 h worked out at 89.1% and the share remaining at 2 h came to 77.8%.
